The supplement of paper PMC11451515

Test system: NOMO1
Assay: cell viability relative to DMSO control; higher = less cytotoxic
Details: 48 h
Summary of the method: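 NOMO1, SEM and P12-Ichikawa leukemia cells spent at least four passages adapting to each medium before use. They were seeded at 500 cells/well (NOMO1, SEM) or 1000 cells/well (P12-Ichikawa) in 5 μl in 1536-well plates and pin-dosed with library compounds in DMSO at 11 threefold steps from 47 μM down to 0.79 nM. After 48 h at 37°C, CellTiter-Glo One luminescence was read. Viability is reported as a percentage of the DMSO wells on each plate, with cell-free wells as background.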

[1] = HPLM + 10% dialyzed FBS, 0.000781 µM
[2] = HPLM + 10% dialyzed FBS, 0.00234 µM
[3] = HPLM + 10% dialyzed FBS, 0.00702 µM
[4] = HPLM + 10% dialyzed FBS, 0.0211 µM
[5] = HPLM + 10% dialyzed FBS, 0.0632 µM
[6] = HPLM + 10% dialyzed FBS, 0.19 µM
[7] = HPLM + 10% dialyzed FBS, 0.569 µM
[8] = HPLM + 10% dialyzed FBS, 1.71 µM
[9] = HPLM + 10% dialyzed FBS, 5.12 µM
[10] = HPLM + 10% dialyzed FBS, 15.4 µM
[11] = HPLM + 10% dialyzed FBS, 46.1 µM
[12] = RPMI 5 mM glucose + 10% FBS, 0.000781 µM
[13] = RPMI 5 mM glucose + 10% FBS, 0.00234 µM
[14] = RPMI 5 mM glucose + 10% FBS, 0.00702 µM
[15] = RPMI 5 mM glucose + 10% FBS, 0.0211 µM
[16] = RPMI 5 mM glucose + 10% FBS, 0.0632 µM
[17] = RPMI 5 mM glucose + 10% FBS, 0.19 µM
[18] = RPMI 5 mM glucose + 10% FBS, 0.569 µM
[19] = RPMI 5 mM glucose + 10% FBS, 1.71 µM
[20] = RPMI 5 mM glucose + 10% FBS, 5.12 µM
[21] = RPMI 5 mM glucose + 10% FBS, 15.4 µM
[22] = RPMI 5 mM glucose + 10% FBS, 46.1 µM
[23] = RPMI 5 mM glucose + 10% dialyzed FBS, 0.000781 µM
[24] = RPMI 5 mM glucose + 10% dialyzed FBS, 0.00234 µM
[25] = RPMI 5 mM glucose + 10% dialyzed FBS, 0.00702 µM
[26] = RPMI 5 mM glucose + 10% dialyzed FBS, 0.0211 µM
[27] = RPMI 5 mM glucose + 10% dialyzed FBS, 0.0632 µM
[28] = RPMI 5 mM glucose + 10% dialyzed FBS, 0.19 µM
[29] = RPMI 5 mM glucose + 10% dialyzed FBS, 0.569 µM
[30] = RPMI 5 mM glucose + 10% dialyzed FBS, 1.71 µM
[31] = RPMI 5 mM glucose + 10% dialyzed FBS, 5.12 µM
[32] = RPMI 5 mM glucose + 10% dialyzed FBS, 15.4 µM
[33] = RPMI 5 mM glucose + 10% dialyzed FBS, 46.1 µM

Row | Compound | cell viability [1] | cell viability [2] | cell viability [3] | cell viability [4] | cell viability [5] | cell viability [6] | cell viability [7] | cell viability [8] | cell viability [9] | cell viability [10] | cell viability [11] | cell viability [12] | cell viability [13] | cell viability [14] | cell viability [15] | cell viability [16] | cell viability [17] | cell viability [18] | cell viability [19] | cell viability [20] | cell viability [21] | cell viability [22] | cell viability [23] | cell viability [24] | cell viability [25] | cell viability [26] | cell viability [27] | cell viability [28] | cell viability [29] | cell viability [30] | cell viability [31] | cell viability [32] | cell viability [33]
1 | CCC1=C[C@@H]2CN(C1)Cc1c([nH]c3ccccc13)[C@@](C(=O)OC)(c1cc3c(cc1OC)N(C)[C@H]1[C@@](O)(C(=O)OC)[C@H](OC(C)=O)[C@]4(CC)C=CCN5CC[C@]31[C@@H]54)C2 | 127% | 119% | 108% | 96.9% | 49.3% | 34.5% | 38% | 34.5% | 38.4% | 47% | 27.4% | 106% | 98.3% | 98.9% | 99.3% | 70.5% | 20.6% | 21.1% | 23.4% | 22.4% | 29.2% | 18.9% | 120% | 114% | 114% | 107% | 86.5% | 18.8% | 25.7% | 26.5% | 29% | 27.8% | 20.5%
2 | C[C@H]1CN(C[C@@H](C)O1)CC(=O)NC2=CC=C3SC4=C(CC3=C2)C=CC=C4\C5=C\C(=O)\C=C(/O5)N6CCOCC6 | 100% | 125% | 108% | 123% | 126% | 128% | 118% | 89.2% | 72.5% | 39.2% | 35% | 93.4% | 125% | 121% | 118% | 107% | 106% | 98.7% | 106% | 96.8% | 64.2% | 55.8% | 85% | 108% | 107% | 106% | 104% | 113% | 100% | 97.3% | 85.5% | 62.7% | 45.2%
3 | O=C(O)[C@H](Cc1c[nH]c2ccccc12)N1C(=O)c2ccccc2C1=O | 96.1% | 107% | 103% | 99.4% | 110% | 91.5% | 90.8% | 103% | 119% | 99.6% | 117% | 89.8% | 83.3% | 97% | 89.1% | 87.9% | 80.8% | 89.3% | 97.1% | 90.4% | 92.3% | 86.1% | 92.5% | 99.1% | 104% | 101% | 98.7% | 94.1% | 100% | 101% | 103% | 99.6% | 83.3%
4 | OC[C@H]1O[C@@H](Oc2ccc(O)cc2)[C@H](O)[C@@H](O)[C@@H]1O | 88.1% | 102% | 95.4% | 105% | 95.9% | 102% | 79.7% | 101% | 86.5% | 114% | 104% | 81.4% | 93.9% | 87% | 83.1% | 86% | 87.7% | 98.5% | 91.5% | 92.5% | 90.8% | 88.9% | 65.2% | 74.8% | 85.4% | 82.1% | 82.3% | 79.6% | 89.1% | 94.5% | 86.1% | 95.5% | 93.4%
5 | CNC(=O)c1cccc(-c2ccc3c(N4CCOC[C@@H]4C)nc(N4CCOC[C@@H]4C)nc3n2)c1 | 99.9% | 99.8% | 83.6% | 92.1% | 73.8% | 61.4% | 64.3% | 67.3% | 60.1% | 49.3% | 53.7% | 98.3% | 91.1% | 91.2% | 96.6% | 79.6% | 82.9% | 87.2% | 68.9% | 57.9% | 60.2% | 45.2% | 83.7% | 85.7% | 90.5% | 79.5% | 75.6% | 62.8% | 62.5% | 54.8% | 50.4% | 49.4% | 50.3%
6 | Cc1nc(Nc2ncc(C(=O)Nc3c(C)cccc3Cl)s2)cc(N2CCN(CCO)CC2)n1 | 90.9% | 104% | 102% | 99.9% | 107% | 107% | 113% | 95.2% | 83.9% | 85.6% | 71.9% | 104% | 102% | 106% | 101% | 105% | 105% | 117% | 110% | 100% | 89.3% | 80.3% | 101% | 94.5% | 102% | 92.1% | 105% | 94.3% | 106% | 96.2% | 81% | 75.9% | 75.9%
7 | Cc1c[nH]c(/C=C2\C(=O)Nc3ccccc32)c1CCC(=O)O | 109% | 114% | 116% | 101% | 90.1% | 102% | 95.3% | 83% | 82.2% | 61.3% | 50.7% | 125% | 124% | 114% | 122% | 122% | 116% | 121% | 116% | 103% | 70.6% | 68.1% | 123% | 126% | 121% | 110% | 109% | 111% | 118% | 104% | 91.7% | 77.1% | 58.6%
8 | CN(C)CCOC(c1ccccc1)c1ccccc1 | 94.4% | 84% | 105% | 116% | 111% | 112% | 112% | 113% | 109% | 104% | 83.5% | 112% | 111% | 106% | 121% | 117% | 106% | 115% | 107% | 107% | 101% | 53.6% | 94.6% | 112% | 101% | 113% | 122% | 111% | 110% | 109% | 104% | 119% | 64.6%
9 | C#Cc1cccc(Nc2ncnc3cc(OCCOC)c(OCCO)cc23)c1 | 135% | 110% | 119% | 119% | 125% | 116% | 100% | 68.7% | 63.3% | 69.9% | 28.1% | 118% | 105% | 110% | 94.6% | 118% | 104% | 112% | 94.2% | 103% | 93.2% | 33.9% | 118% | 123% | 98.2% | 112% | 104% | 112% | 118% | 92.2% | 104% | 94.7% | 41.7%
10 | Nc1nc(-c2nn(Cc3ccccc3F)c3ncccc23)nc(N)c1N1CCOCC1 | 75.2% | 103% | 115% | 102% | 119% | 122% | 122% | 122% | 130% | 112% | 92.1% | 88.5% | 93.8% | 106% | 107% | 110% | 115% | 113% | 120% | 104% | 112% | 113% | 96.3% | 107% | 107% | 110% | 123% | 106% | 111% | 116% | 108% | 121% | 110%
11 | Fc1ccc(C(c2ccc(F)cc2)N2CCN(C/C=C/c3ccccc3)CC2)cc1 | 115% | 123% | 144% | 135% | 117% | 121% | 104% | 103% | 105% | 112% | 95.9% | 112% | 111% | 106% | 123% | 113% | 114% | 107% | 107% | 108% | 115% | 104% | – | – | – | – | – | – | – | – | – | – | –
12 | C[C@@H](c1ncncc1F)[C@](O)(Cn1cncn1)c1ccc(F)cc1F | 117% | 121% | 110% | 110% | 125% | 114% | 120% | 107% | 111% | 108% | 93.3% | 111% | 111% | 114% | 103% | 108% | 107% | 126% | 108% | 107% | 91.1% | 93.8% | 111% | 114% | 128% | 115% | 111% | 97.9% | 108% | 116% | 99.8% | 111% | 97.4%
13 | NC(=O)N1c2ccccc2CC(=O)c2ccccc21 | 115% | 124% | 121% | 126% | 123% | 136% | 128% | 137% | 126% | 143% | 163% | – | – | – | – | – | – | – | – | – | – | – | – | – | – | – | – | – | – | – | – | – | –
14 | Cc1cc(O)c2c3c4c(cc(O)c13)C(C)(C)C(=O)c1c(O)cc(O)c(c1-4)C2=O | 125% | 121% | 107% | 115% | 109% | 112% | 115% | 99.2% | 114% | 101% | 7.32% | 106% | 109% | 109% | 101% | 88.6% | 101% | 90.5% | 104% | 101% | 85.2% | 26.1% | 89.5% | 95.2% | 118% | 98.9% | 109% | 86.5% | 107% | 107% | 112% | 114% | 36.5%
15 | O=C/1\C=C(/OC(=C1)/C2=C3SC4=C(SC3=CC=C2)C=CC=C4)N5CCOCC5 | 93.3% | 94.6% | 103% | 32.3% | 112% | 103% | 122% | 105% | 84% | 90.1% | 82% | 79.8% | 93.2% | 91.1% | 19.4% | 92% | 91.9% | 94.7% | 96.7% | 89.1% | 89.3% | 90.3% | 81.3% | 93.6% | 98.1% | 33.1% | 88.2% | 104% | 107% | 99.3% | 83.7% | 81.2% | 86.2%
16 | COc1cc(N2CCC(O)CC2)ccc1Nc1cc(Nc2ccccc2[S+](=O)([O-])C(C)C)c2cc[nH]c2n1 | 105% | 131% | 64.6% | 53.7% | 96.5% | 96.3% | 89% | 79% | 74.1% | 62.1% | 65.6% | 91.7% | 92.6% | 84.6% | 84.9% | 98.7% | 84.4% | 92.4% | 86.6% | 87.6% | 74% | 71.9% | 90.4% | 83.4% | 97.3% | 100% | 101% | 87.8% | 63.4% | 84.7% | 87.5% | 67% | 67.1%
